The results in this text go back to US10645922B2, “Methods and compositions for pest bait” (Dow AgroSciences LLC, priority 2015, dated 2020).

“Also recorded” adds a separate entry of the source.

The subject of the experiment is termites. Description: Two-way choice bioassay, filter paper consumption by termite workers. The settings on record: FIG. 1A, FIG. 1B; series of experiments and validated tests. The class given is in vivo, Reticulitermes flavipes. As to the method:
Two-way choice bioassays are conducted with the granule formulation containing 1% 1-MCP in weight boats. Test materials are placed in weigh boats to prevent physical contact of termite workers with test material. Filter papers associated with 1-MCP are used to qualify consumption. Bioassay arenas are placed inside sealed plastic containers with open moisture sources to maintain high humidity for releasing 1-MCP from the granule formulation. […] The experiment results are also shown in Table 1, where negative control uses granules having 22% alpha-cyclodextrin+78% sodium bentonite.

Turning to `CC1=CC1` [1-MCP, 1-methylcyclopropene], the “Filter paper consumption in presence of 1-MCP (in words)” value is reported as “Significant higher consumption; also recorded: significantly increase”.
